Here are results for 21 molecules from patent US9169243B2, “Apoptosis signal-regulating kinase inhibitors” (Gilead Sciences, Inc., priority 2013, dated 2015).

What is called IC50 is the point on the concentration scale where inhibition reaches its midpoint.

Sequence of recombinant human ASK1 kinase (Q99683 whole entry): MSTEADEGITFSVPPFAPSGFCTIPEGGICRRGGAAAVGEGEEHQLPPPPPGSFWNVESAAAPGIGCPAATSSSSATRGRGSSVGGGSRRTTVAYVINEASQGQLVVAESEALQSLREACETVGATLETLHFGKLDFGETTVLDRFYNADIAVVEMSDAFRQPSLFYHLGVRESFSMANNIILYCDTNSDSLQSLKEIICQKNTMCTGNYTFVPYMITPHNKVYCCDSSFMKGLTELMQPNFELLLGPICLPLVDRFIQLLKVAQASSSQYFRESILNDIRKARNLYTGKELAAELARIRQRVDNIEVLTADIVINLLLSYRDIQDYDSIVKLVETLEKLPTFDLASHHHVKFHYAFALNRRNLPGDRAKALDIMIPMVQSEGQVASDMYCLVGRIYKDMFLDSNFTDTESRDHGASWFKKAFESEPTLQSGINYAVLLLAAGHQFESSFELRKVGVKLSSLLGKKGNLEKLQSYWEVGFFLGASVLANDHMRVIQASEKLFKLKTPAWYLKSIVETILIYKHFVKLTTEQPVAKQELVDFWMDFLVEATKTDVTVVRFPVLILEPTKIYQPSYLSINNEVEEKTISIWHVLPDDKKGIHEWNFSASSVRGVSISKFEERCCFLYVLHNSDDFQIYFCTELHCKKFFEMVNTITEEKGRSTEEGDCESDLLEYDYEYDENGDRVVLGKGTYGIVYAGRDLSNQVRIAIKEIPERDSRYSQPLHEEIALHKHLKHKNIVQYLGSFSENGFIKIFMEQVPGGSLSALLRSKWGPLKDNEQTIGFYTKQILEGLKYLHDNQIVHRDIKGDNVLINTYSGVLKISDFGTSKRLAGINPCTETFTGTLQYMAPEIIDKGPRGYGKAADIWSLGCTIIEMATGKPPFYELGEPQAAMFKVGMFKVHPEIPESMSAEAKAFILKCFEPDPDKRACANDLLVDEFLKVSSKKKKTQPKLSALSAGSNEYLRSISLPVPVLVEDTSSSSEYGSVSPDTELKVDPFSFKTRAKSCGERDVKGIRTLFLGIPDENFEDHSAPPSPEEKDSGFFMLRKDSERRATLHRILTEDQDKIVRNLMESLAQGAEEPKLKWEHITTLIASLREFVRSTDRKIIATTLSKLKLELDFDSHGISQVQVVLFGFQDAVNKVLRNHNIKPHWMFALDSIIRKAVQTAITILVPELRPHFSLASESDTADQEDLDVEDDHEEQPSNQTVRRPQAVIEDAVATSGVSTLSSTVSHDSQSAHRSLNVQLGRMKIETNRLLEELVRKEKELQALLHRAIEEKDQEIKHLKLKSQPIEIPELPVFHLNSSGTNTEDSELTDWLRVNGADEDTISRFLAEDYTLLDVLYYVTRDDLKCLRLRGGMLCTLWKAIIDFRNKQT

The target in this assay is recombinant human ASK1 kinase (Homo sapiens (Human), UniProt Q99683). The experiment in a line: TR-FRET ASK1 (Apoptosis Signal-Regulating Kinase 1) kinase assay. The format is biochemical. The conditions noted are these: TR-FRET/HTRF, 4 nM ASK1, 1 μM STK3 peptide substrate, 100 μM ATP, 3 hr; average of quadruplicate determination. The text has this:
I. TR-FRET ASK1 (Apoptosis Signal-Regulating Kinase 1) Kinase Assay
To evaluate the inhibitory activity of compounds of the invention against ASK1 (Apoptosis Signal-regulating Kinase 1) kinase, its activity was examined using a TR-FRET ASK1 kinase assay which determined the amount of phosphate transferred to a peptide substrate from ATP.
Dephosphorylated recombinant human ASK1 kinase was from Gilead Sciences. Small molecule kinase inhibitor staurosporine (Catalogue #S6942) and dithiothreitol (DTT, catalogue #43815-5G) were obtained from Sigma Chemicals (St. Louis, Mo.). ATP (catalogue #7724) was from Affymetrix (Santa Clara, Calif.) and test compounds were from Gilead Sciences. HTRF KinEASE™-STK S3 kit was obtained from Cisbio (Bedford, Mass.). All other reagents were of the highest grade commercially available.
The assay measures the phosphorylation level of a biotinylated peptide substrate by the ASK1 kinase using HTRF detection. This is a competitive, time-resolved fluorescence resonance energy transfer (TR-FRET) immunoassay, based on HTRF® KinEASE™-STK manual from Cisbio. Test compound, 1 μM STK3 peptide substrate, 4 nM of ASK1 kinase were incubated with 10 mM MOP buffer, pH. 7.0 containing 10 mM Mg-acetate, 0.025% NP-40, 1 mM DTT, 0.05% BSA and 1.5% glycerol for 30 minutes then 100 μM ATP was added to start the kinase reaction and incubated for 3 hr. Peptide antibody labeled with 1×Eu^3+ Cryptate buffer containing 10 mM EDTA and 125 nM Streptavidin XL665 were added to stop the reaction and phosphorylated peptide substrate was detected using Envision 2103 Multilabeled reader from PerkinElmer. The fluorescence was measured at 615 nm (Cryptate) and 665 nm (XL665) and a ratio of 665 nm/615 nm was calculated for each well. The resulting TR-FRET level (a ratio of 665 nm/615 nm) was proportional to the phosphorylation level. Under these assay conditions, the degree of phosphorylation of peptide substrate was linear with time and concentration for the enzyme. The assay system yielded consistent results with regard to Km and specific activities for the enzyme. For inhibition experiments (IC50 values), activities were performed with constant concentrations of ATP, peptide and several fixed concentrations of inhibitors. Staurosporine, the nonselective kinase inhibitor, was used as the positive control. All enzyme activity data are reported as an average of quadruplicate determination.
The IC50 values were calculated following equation: y=Range/{1+(x/IC50)^s}+Background where x and y represent the concentration of inhibitors and enzyme activity, respectively. Enzyme activity is expressed as the amount of Phosphate incorporated into substrate peptide from ATP. Range is the maximum y range (no inhibitor, DMSO control) and s is a slope factor.
Consider `C[C@H](n1cnnc1-c1nc(NC(=O)c2cc(-n3cnc(C4CC4)c3)c(N3CC4CN(C)CC4C3)cn2)cs1)C(F)(F)F` (stereo partly drawn) [Compound 38, 4-(4-cyclopropyl-1H-imidazol-1-yl)-5-(5-methylhexahydropyrrolo[3,4-c]pyrrol-2(1H)-yl)-N-(2-(4-((S)-1,1,1-trifluoropropan-2-yl)-4H-1,2,4-triazol-3-yl)thiazol-4-yl)picolinamide], for which the IC50 was 2.4 nM.
In the case of `O=C(Nc1csc(-c2nncn2C2CC2)n1)c1cc(-n2cnc(C3CC3)c2)c(N2CC(C(F)F)C2)cn1` [Compound 1, 4-(4-cyclopropylimidazol-1-yl)-N-[2-(4-cyclopropyl-1,2,4-triazol-3-yl)-1,3-thiazol-4-yl]-5-[3-(difluoromethyl)azetidin-1-yl]pyridine-2-carboxamide] it was 2.2 nM; in that of `C[C@H](n1cnnc1-c1nc(NC(=O)c2cc(-n3cnc(C4CC4)c3)c(N3CC4CC4C3)cn2)cs1)C(F)(F)F` (stereo partly drawn) [Compound 40, 5-(3-azabicyclo[3.1.0]hexan-3-yl)-4-(4-cyclopropyl-1H-imidazol-1-yl)-N-(2-(4-((S)-1,1,1-trifluoropropan-2-yl)-4H-1,2,4-triazol-3-yl)thiazol-4-yl)picolinamide], 2.2 nM.
The value for `C[C@H](n1cnnc1-c1nc(NC(=O)c2cc(-n3cnc(C4CC4)c3)c(N3CCN(C4CC4)CC3)cn2)cs1)C(F)(F)F` [Compound 42, (S)-4-(4-cyclopropyl-1H-imidazol-1-yl)-5-(4-cyclopropylpiperazin-1-yl)-N-(2-(4-(1,1,1-trifluoropropan-2-yl)-4H-1,2,4-triazol-3-yl)thiazol-4-yl)picolinamide] was 1.8 nM; that for `COC1(C)CCN(c2cnc(C(=O)Nc3csc(-c4nncn4C4CC4)n3)cc2-n2cnc(C3CC3)c2)CC1` [Compound 12, 4-(4-cyclopropylimidazol-1-yl)-N-[2-(4-cyclopropyl-1,2,4-triazol-3-yl)-1,3-thiazol-4-yl]-5-(4-methoxy-4-methylpiperidin-1-yI)pyridine-2-carboxamide] was 14.2 nM; that for `CNC(=O)C1CCN(c2cnc(C(=O)Nc3csc(-c4nncn4C4CC4)n3)cc2-n2cnc(C3CC3)c2)CC1` [Compound 11, 4-(4-cyclopropylimidazol-1-yl)-N-[2-(4-cyclopropyl-1,2,4-triazol-3-yl)-1,3-thiazol-4-yl]-5-[4-(methylcarbamoyl)piperidin-1-yl]pyridine-2-carboxamide] was 0.4 nM.
The value for `O=C(Nc1csc(-c2nncn2C2CC2)n1)c1cc(-n2cnc(C3CC3)c2)c(N2CCC(F)CC2)cn1` [Compound 8, 4-(4-cyclopropylimidazol-1-yl)-N-[2-(4-cyclopropyl-1,2,4-triazol-3-yl)-1,3-thiazol-4-yl]-5-(4-fluoropiperidin-1-yl)pyridine-2-carboxamide] was 2.5 nM.
As for `COC1CCN(c2cnc(C(=O)Nc3csc(-c4nncn4C4CC4)n3)cc2-n2cnc(C3CC3)c2)CC1` [Compound 10, 4-(4-cyclopropylimidazol-1-yl)-N-[2-(4-cyclopropyl-1,2,4-triazol-3-yl)-1,3-thiazol-4-yl]-5-(4-methoxypiperidin-1-yl)pyridine-2-carboxamide], the 50% inhibitory concentration (IC50) came out at 3.2 nM.
In the case of `O=C(Nc1csc(-c2nncn2C2CC2)n1)c1cc(-n2cnc(C3CC3)c2)c(N2CCN3C(=O)OCC3C2)cn1` (stereo not drawn) [Compound 16, 4-(4-cyclopropylimidazol-1-yl)-N-[2-(4-cyclopropyl-l,2,4-triazol-3-yl)-1,3-thiazol-4-yl]-5-(3-oxo-5,6,8,8a-tetrahydro-1H-[1,3]oxazolo[3,4-a]pyrazin-7-yl)pyridine-2-carboxamide], the IC50 amounted to 2.7 nM.
The value for `N#CC1CN(c2cnc(C(=O)Nc3csc(-c4nncn4C4CC4)n3)cc2-n2cnc(C3CC3)c2)C1` [Compound 2, 5-(3-cyanoazetidin-1-yl)-4-(4-cyclopropylimidazol-1-yl)-N-[2-(4-cyclopropyl-1,2,4-triazol-3-yl)-1,3-thiazol-4-yl]pyridine-2-carboxamide] was 0.9 nM.
The value for `O=C(Nc1csc(-c2nncn2C2CC2)n1)c1cc(-n2cnc(C3CC3)c2)c(N2CCCOCC2)cn1` [Compound 14, 4-(4-cyclopropylimidazol-1-yl)-N-[2-(4-cyclopropyl-1,2,4-triazol-3-yl)-1,3-thiazol-4-yl]-5-(1,4-oxazepan-4-yl)pyridine-2-carboxamide] was 3.8 nM; that for `C[C@H](n1cnnc1-c1nc(NC(=O)c2cc(-n3cnc(C4CC4)c3)c(N3CCN(CC4CC4)CC3)cn2)cs1)C(F)(F)F` [Compound 43, (S)-4-(4-cyclopropyl-1H-imidazol-1-yl)-5-(4-(cyclopropylmethyl)piperazin-1-yl)-N-(2-(4-(1,1,1-trifluoropropan-2-yl)-4H-1,2,4-triazol-3-yl)thiazol-4-yl)picolinamide] was 1.8 nM.
As to `O=C(Nc1csc(-c2nncn2C2CC2)n1)c1cc(-n2cnc(C3CC3)c2)c(N2CC3(CCOCC3)C2)cn1` [Compound 22, 4-(4-cyclopropylimidazol-1-yl)-N-[2-(4-cyclopropyl-1,2,4-triazol-3-yl)-1,3-thiazol-4-yl]-5-(7-oxa-2-azaspiro[3.5]nonan-2-yl)pyridine-2-carboxamide], the IC50 turned out to be 4.5 nM.
`O=C(Nc1csc(-c2nncn2C2CC2)n1)c1cc(-n2cnc(C3CC3)c2)c(N2CCN(CC3CC3)CC2)cn1` [Compound 20, 4-(4-cyclopropylimidazol-1-yl)-5-[4-(cyclopropylmethyl)piperazin-1-yl]-N-[2-(4-cyclopropyl-1,2,4-triazol-3-yl)-1,3-thiazol-4-yl]pyridine-2-carboxamide]: the IC50 amounted to 2.5 nM.
The value for `COC1CCN(c2cnc(C(=O)Nc3csc(-c4nncn4[C@@H](C)C(F)(F)F)n3)cc2-n2cnc(C3CC3)c2)CC1` [Compound 30, (S)-4-(4-cyclopropyl-1H-imidazol-1-yl)-5-(4-methoxypiperidin-1-yl)-N-(2-(4-(1,1,1-trifluoropropan-2-yl)-4H-1,2,4-triazol-3-yl)thiazol-4-yl)picolinamide] was 2.3 nM.
Consider `N#CC1CCN(c2cnc(C(=O)Nc3csc(-c4nncn4C4CC4)n3)cc2-n2cnc(C3CC3)c2)CC1` [Compound 9, 5-(4-cyanopiperidin-1-yl)-4-(4-cyclopropylimidazol-1-yl)-N-[2-(4-cyclopropyl-1,2,4-triazol-3-yl)-1,3-thiazol-4-yl]pyridine-2-carboxamide], for which the IC50 was 2.2 nM.
In the case of `O=C(Nc1csc(-c2nncn2C2CC2)n1)c1cc(-n2cnc(C3CC3)c2)c(N2CC(F)(F)C2)cn1` [Compound 5, 4-(4-cyclopropylimidazol-1-yl)-N-[2-(4-cyclopropyl-1,2,4-triazol-3-yl)-1,3-thiazol-4-yl]-5-(3,3-difluoroazetidin-1-yl)pyridine-2-carboxamide] it was 2.8 nM; in that of `COC1(C)CN(c2cnc(C(=O)Nc3csc(-c4nncn4C4CC4)n3)cc2-n2cnc(C3CC3)c2)C1` [Compound 4, 4-(4-cyclopropylimidazol-1-yl)-N-[2-(4-cyclopropyl-1,2,4-triazol-3-yl)-1,3-thiazol-4-yl]-5-(3-methoxy-3-methylazetidin-1-yl)pyridine-2-carboxamide], 1.8 nM.
In the case of `C[C@H](n1cnnc1-c1nc(NC(=O)c2cc(-n3cnc(C4CC4)c3)c(N3CC(N4CCOCC4)C3)cn2)cs1)C(F)(F)F` [Compound 41, (S)-4-(4-cyclopropyl-1H-imidazol-1-yl)-5-(3-morpholinoazetidin-1-yl)-N-(2-(4-(1,1,1-trifluoropropan-2-yl)-4H-1,2,4-triazol-3-yl)thiazol-4-yl)picolinamide] it was 1.9 nM; in that of `O=C(Nc1csc(-c2nncn2C2CC2)n1)c1cc(-n2cnc(C3CC3)c2)c(N2CCN(CC(F)(F)F)CC2)cn1` [Compound 13, 4-(4-cyclopropylimidazol-1-yl)-N-[2-(4-cyclopropyl-1,2,4-triazol-3-yl)-1,3-thiazol-4-yl]-5-[4-(2,2,2-trifluoroethyl)piperazin-1-yl]pyridine-2-carboxamide], 2.9 nM.
As for `C[C@H](n1cnnc1-c1nc(NC(=O)c2cc(-n3cnc(C4CC4)c3)c(N3CCC(C#N)CC3)cn2)cs1)C(F)(F)F` [Compound 29, (S)-5-(4-cyanopiperidin-1-yl)-4-(4-cyclopropyl-1H-imidazol-1-yl)-N-(2-(4-(1,1,1-trifluoropropan-2-yl)-4H-1,2,4-triazol-3-yl)thiazol-4-yl)picolinamide], the 50% inhibitory concentration (IC50) worked out at 1.7 nM.
